Six molecules from patent US20140329682A1, “METHOD OF CONTROLLING WEED IN A SUGAR CANE FIELD” (SUMITOMO CHEMICAL COMPANY, LIMITED, priority 2011, published 2014) can be followed below.

The subject of data set [1] is sugar cane. Briefly: Phytotoxicity on sugar cane, soil surface spray, insecticide-treated stem cutting (Example 6). The source says:
(§1) The “phytotoxicity” evaluated herein is the damage characteristic determined to be due to a treated compound, and is clearly discriminated from the damage characteristic caused by a harmful animal or plant disease.
A 30 cm to 40 cm stem cutting of sugar cane is placed on a wet soil, and germination is stimulated. The stem cutting from which a bud has grown to about 1 cm is selected, and the length of the stem cutting is adjusted to be 3 cm so that the stem cutting has one node. Clothianidin, thiamethoxiam, imidacloprid, dinotefuran, nitenpyram, acetamiprid or thiacloprid is adhered to the stem cutting. A soil is packed into a plastic pot, and seeds of Amaranthus retroflexus are seeded thereon. The stem cutting of sugar cane treated with clothianidin, thiamethoxiam, imidacloprid, dinotefuran, nitenpyram, acetamiprid or thiacloprid is planted in the soil packed into the pot at a depth of 2 cm. […] Thereafter, the pot for a test is placed in a greenhouse.

For data set [2], the system named is Amaranthus retroflexus. Briefly: Herbicidal activity, soil surface spray after planting (Example 4). In kind it is in vivo. The following applies: 3 cm stem cutting, one node, soil surface spray on date of planting, four weeks after treatment.
The test system of data set [3] is sugar cane. Briefly: Phytotoxicity on sugar cane, spray above weed before planting, azole-fungicide-treated stem cutting (Example 11). As to the method: as §1
A soil is packed into a plastic pat, and seeds of Amaranthus retroflexus are seeded thereon. Thereafter, the pot is placed in a greenhouse, and the weed is grown.
(§2) A 30 cm to 40 cm stem cutting of sugar cane is placed on a wet soil, and germination is stimulated. The stem cutting from which a bud has grown to about 1 cm is selected, and the length of the stem cutting is adjusted to be 3 cm so that the stem cutting has one node. Azaconazole, bitertanol, bromoconazole, cyproconazole, difenoconazole, diniconazole, epoxyconazole, fenbuconazole, fluquinconazole, flusilazole, flutriafol, hexaconazole, imibenconazole, ipconazole, metconazole, myclobutanil, penconazole, propiconazole, prothioconazole, simeconazole, tebuconazole, tetraconazole, triadimenol, triticonazole, fenarimol, nuarimol, pyrifenox, imazalil, oxpoconazole fumarate, pefurazoate, procloraz or triflumizole is adhered to the stem cutting.
The pot for a test is placed in a greenhouse.

Data set [4] relates to sugar cane. Briefly: Phytotoxicity on sugar cane, soil surface spray after planting (Example 4).
Text: as §1
A 30 cm to 40 cm stem cutting of sugar cane is placed on a wet soil, and germination is stimulated. The stem cutting from which a bud has grown to about 1 cm is selected, and the length of the stem cutting is adjusted to be 3 cm so that the stem cutting has one node. A soil is packed into a plastic pot, and seeds of Amaranthus retroflexus are seeded thereon. The stem cutting of sugar cane is planted in the soil packed in the pot at a depth of 2 cm. […] Thereafter, the pot for a test is placed in a greenhouse.

Data set [5] concerns sugar cane. Briefly: Phytotoxicity on sugar cane, soil surface spray, azole-fungicide-treated stem cutting (Example 10).
Text: as §1
as §2, with “30” for “30 cm”, “cutting. A soil is packed into a plastic pot, and seeds of Amaranthus retroflexus are seeded thereon. The stem cutting of sugar cane treated with azaconazole, bitertanol, bromoconazole, cyproconazole, difenoconazole, diniconazole, epoxyconazole, fenbuconazole, fluquinconazole, flusilazole, flutriafol, hexaconazole, imibenconazole, ipconazole, metconazole, myclobutanil, penconazole, propiconazole, prothioconazole, simeconazole, tebuconazole, tetraconazole, triadimenol, triticonazole, fenarimol, nuarimol, pyrifenox, imazalil, oxpoconazole fumarate, pefurazoate, procloraz or triflumizole is planted in the soil packed into the pot at a depth of 2 cm. […] Thereafter, the pot for a test is placed in a greenhouse.” for “cutting.”

Data set [6] deals with Amaranthus retroflexus. Briefly: Herbicidal activity, spray above weed before planting, insecticide-treated stem cutting (Example 7). The data set is classed as in vivo. The note with it: sprayed above weed, 3 cm stem cutting treated with clothianidin, thiamethoxiam, imidacloprid, dinotefuran, nitenpyram, acetamiprid or thiacloprid planted one week after treatment, four weeks after treatment.
Protocol: A soil is packed into a plastic pot, and seeds of Amaranthus retroflexus are seeded thereon. Thereafter, the pot is placed in a greenhouse, and the weed is grown.

The test system of data set [7] is Amaranthus retroflexus. Briefly: Herbicidal activity, soil surface spray on day of planting (Example 1). In kind it is in vivo. The following applies: four weeks after treatment, scale 0 to 100. The method, then:
The stem cutting from which a bud had grown to about 1 cm was selected, and the length of the stem cutting was adjusted to be 3 cm, 15 cm or 25 cm. The stem cutting of 3 cm or 15 cm had only one node, and the stem cutting of 25 cm had two nodes. A soil was packed into a 32 cm×25 cm×11 cm plastic pot, and seeds of Amaranthus retroflexus were seeded thereon. […] On the date when the stem cutting was planted, and after planting of the stem cutting, a water-diluted liquid of a flumioxazin water dispersible granule (water dispersible granule containing 51% floumioxazin, trade name: Valor SX, manufactured by Valent USA Corporation) (100 ppm or 250 ppm) was uniformly sprayed on the soil surface with a sprayer at an amount described in Table 1. Thereafter, the pot for a test was placed in a greenhouse. Four weeks after treatment with flumioxazin, phytotoxicity on sugar cane and the herbicidal activity against Amaranthus retroflexus were determined.

Data set [8] relates to sugar cane. Briefly: Phytotoxicity on sugar cane, spray from upper side of pot, sugar cane at 4 to 5 leaves (Example 2). The data set is classed as in vivo. The following applies: 125 g (active ingredient)/ha, one week after treatment, scale 0 to 100. The method, then:
A sugar cane, a foliage of which had grown to about 4 to 5 leaves, was selected, and the length of the stem cutting was adjusted to be 8 cm, 15 cm or 25 cm. The 8 cm or 15 cm stem cutting had one node, and the 25 cm stem cutting had two nodes. A soil was packed into a 32 cm×25 cm×11 cm plastic pot, and seeds of Amaranthus retroflexus were seeded thereon. […] On the date when the stem cutting was planted, and after planting of the stem cutting, a water-diluted liquid of a flumioxazin water dispersible granule (water dispersible granule containing 51% flumioxazin, trade name: Valor SX, manufactured by Valent USA Corporation) (250 ppm) was uniformly sprayed with a sprayer from an upper side of the pot at an amount described in Table 2. Thereafter, the pot for a test was placed in a greenhouse. One week after treatment with flumioxazin, phytotoxicity on sugar cane was determined and, four weeks after treatment with flumioxazin, the herbicidal activity against Amaranthus retroflexus was determined.

[9] abbreviates: Example 6, 3 cm stem cutting treated with clothianidin, thiamethoxiam, imidacloprid, dinotefuran, nitenpyram, acetamiprid or thiacloprid, soil surface spray, four weeks after treatment.
Setting [10] is: Example 11, sprayed above weed, 3 cm stem cutting treated with azaconazole, bitertanol or another listed azole-type fungicide planted one week after treatment, four weeks after treatment.
Setting [11] is: Example 4, 3 cm stem cutting, one node, soil surface spray on date of planting, four weeks after treatment.
[12] abbreviates: Example 10, 3 cm stem cutting treated with azaconazole, bitertanol or another listed azole-type fungicide, soil surface spray, four weeks after treatment.

On to `CCOc1cc(Oc2ccc(C(F)(F)F)cc2Cl)ccc1[N+](=O)[O-]` [oxyfluorfen], for which the phytotoxicity entry in the data set on sugar cane [1] (setting [9]), with sugar cane [3] (setting [10]), with sugar cane [4] (setting [11]) and in the data set with sugar cane [5] (setting [12]) was “significant phytotoxicity on sugar cane is not observed” in each case. Also, the “herbicidal activity against Amaranthus retroflexus” value in the data set on Amaranthus retroflexus [2] and in the data set on Amaranthus retroflexus [6] was “the controlling effect on a weed can be confirmed” throughout.

In the case of `CC(C)Oc1cc(-n2nc(C(C)(C)C)oc2=O)c(Cl)cc1Cl` [oxadiazon], the phytotoxicity entry with sugar cane [1] (in vivo), in the data set with sugar cane [3] (in vivo), in the data set with sugar cane [4] (in vivo) and with sugar cane [5] (in vivo) was “significant phytotoxicity on sugar cane is not observed” each time. Further, the “herbicidal activity against Amaranthus retroflexus” value in the data set with Amaranthus retroflexus [2] and in the data set with Amaranthus retroflexus [6] was “the controlling effect on a weed can be confirmed” each time.

Turning to `CC(C)N(C)S(=O)(=O)NC(=O)c1cc(-n2c(=O)cc(C(F)(F)F)n(C)c2=O)c(F)cc1Cl` [Saflufenacil, saflufenacil], the phytotoxicity result with sugar cane [1] (setting [9]), with sugar cane [3] (setting [10]), with sugar cane [4] (setting [11]) and with sugar cane [5] (setting [12]) was “significant phytotoxicity on sugar cane is not observed” throughout. The “herbicidal activity against Amaranthus retroflexus” value in the data set on Amaranthus retroflexus [2] and in the data set on Amaranthus retroflexus [6] was “the controlling effect on a weed can be confirmed” each time.

Regarding `C#CCN1C(=O)COc2cc(F)c(-n3c(=O)n(C)c(=S)n(C)c3=O)cc21` [compound of the formula (I)], the phytotoxicity entry in the data set on sugar cane [1] (in vivo), in the data set with sugar cane [3] (in vivo), in the data set with sugar cane [4] (in vivo) and with sugar cane [5] (in vivo) was “significant phytotoxicity on sugar cane is not observed” in each case. The “herbicidal activity against Amaranthus retroflexus” value with Amaranthus retroflexus [2] and with Amaranthus retroflexus [6] was “the controlling effect on a weed can be confirmed” each time.

For the molecule `C#CCN1C(=O)COc2cc(F)c(N3C(=O)C4=C(CCCC4)C3=O)cc21` [Flumioxazin, flumioxazin], the phytotoxicity result in the data set with sugar cane [1] (setting [9]), in the data set on sugar cane [3] (setting [10]) and with sugar cane [5] (setting [12]) was “significant phytotoxicity on sugar cane is not observed” throughout. Further, the Herbicidal activity came out at 100 in the data set with Amaranthus retroflexus [7] (50 g (active ingredient)/ha, stem cutting 3 cm); 100 in the data set with Amaranthus retroflexus [7] (50 g (active ingredient)/ha, stem cutting 15 cm); 100 in the data set with Amaranthus retroflexus [7] (50 g (active ingredient)/ha, stem cutting 25 cm); 100 in the data set with Amaranthus retroflexus [7] (125 g (active ingredient)/ha, stem cutting 3 cm); 100 in the data set with Amaranthus retroflexus [7] (125 g (active ingredient)/ha, stem cutting 15 cm); 100 in the data set on Amaranthus retroflexus [7] (125 g (active ingredient)/ha, stem cutting 25 cm). Moreover, the figures for the “Phytotoxicity on sugar cane” value with sugar cane [8] (stem cutting 8 cm (one node)), in the data set on sugar cane [8] (stem cutting 15 cm (one node)) and with sugar cane [8] (stem cutting 25 cm (two nodes)) were 10, 10 and 30, respectively. In addition, in the data set with Amaranthus retroflexus [6], the “herbicidal activity against Amaranthus retroflexus” value is listed as “the controlling effect on a weed can be confirmed”.

Take `Cc1nn(-c2cc(NS(C)(=O)=O)c(Cl)cc2Cl)c(=O)n1C(F)F` [sulfentrazone]: the phytotoxicity result in the data set with sugar cane [1] (in vivo), in the data set on sugar cane [3] (in vivo), with sugar cane [4] (in vivo) and in the data set with sugar cane [5] (in vivo) was “significant phytotoxicity on sugar cane is not observed” each time. Besides, the “herbicidal activity against Amaranthus retroflexus” value with Amaranthus retroflexus [2] and with Amaranthus retroflexus [6] was “the controlling effect on a weed can be confirmed” in each case.
